Source: patent US20130207041A1, “FLUORESCENT COMPOUND, MAKING METHOD, AND FLUORESCENT RESIN COMPOSITION” (Shin-Etsu Chemical Co., Ltd., priority 2012, published 2013)
In brackets after ≈: the same amount, converted by molar mass.

Experiments:
[1] = in ethanol
[2] = Solubility in transparent silicone resin SIM-360 matrix; settings: room temperature, stirring; judged dissolved when solution became transparent
Description: With stirring at room temperature, transparent silicone resin SIM-360 matrix (Shin-Etsu Chemical Co., Ltd.) was added in incremental amounts.

C[Si](C)(C)O[Si](C)(CCCC1(CCC[Si](C)(O[Si](C)(C)C)O[Si](C)(C)C)c2cc(-c3ccc(-c4ccccc4)cc3)ccc2-c2ccc(-c3ccc(-c4ccccc4)cc3)cc21)O[Si](C)(C)C [Compound #2, 2,7-bis(biphenyl)-9,9′-di-[3-(1-trimethylsiloxy-1,3,3,3-tetramethyldisiloxan-1-yl)propyl]-fluorene]
maximum absorption peak wavelength [1]: 338 nm
molar absorption coefficient [1]: 7.07×10^4
solubility in silicone resin SIM-360 matrix [2]: 1.3 mM (≈ 1290 µg/mL)

C[Si](C)(C)O[Si](C)(C)O[Si](C)(C)O[Si](C)(C)O[Si](C)(C)CCCC1(CCC[Si](C)(C)O[Si](C)(C)O[Si](C)(C)O[Si](C)(C)O[Si](C)(C)C)c2cc(-c3ccc(-c4ccccc4)cc3)ccc2-c2ccc(-c3ccc(-c4ccccc4)cc3)cc21 [Compound #4, 2,7-bis(biphenyl)-9,9′-di-[3-(undecamethylpentasiloxan-1-yl)propyl]fluorene]
maximum absorption peak wavelength [1]: 338 nm
molar absorption coefficient [1]: 6.81×10^4
solubility in silicone resin SIM-360 matrix [2]: 6.0 mM (≈ 7750 µg/mL)

CCCCCCC1(CCCCCC)c2cc(-c3ccc(-c4ccccc4)cc3)ccc2-c2ccc(-c3ccc(-c4ccccc4)cc3)cc21 [Compound #5, 2,7-Bis(Biphenyl)-9,9′-Dihexylfluorene, reference compound]
solubility in silicone resin SIM-360 matrix [2]: could not be dissolved
